What was measured:
[1] = Cytotoxicity study using MTT assay, MG-63; format: cell-based; conditions: human, MG-63 osteoblast-like cells, extract, mean, read-out: Cell Viability (%) MG-63 M; for viability at 24 h, 20 µM (stock): MG-63, inhibitor concentration 20 μM; for viability at 24 h, 50 µM (stock): MG-63, inhibitor concentration 50 µM; for viability at 24 h, 100 µM (stock): MG-63, inhibitor concentration 100 µM
Protocol: (§1) Two cell lines, fibroblastic cells NIH/3T3 from mouse embryo (93061524) obtained from Health Protection Agency Culture Collections and supplied by Sigma and MG-63 osteoblast-like cells from human osteosarcoma (ATCC® CRL-1427^TM) were used for cytotoxicity studies. Defrosting and handling of cell lines was carried out according to supplier information.
(§2) The NIH/3T3 cells were grown in Dulbecco’s Modified Eagle Medium (DMEM, Sigma) supplemented with 10% calf bovine serum (Sigma) and 1% Penicillin-Streptomycin solution: 10,000 U/mL penicillin, 10 mg/mL streptomycin, Sigma) and 2.5 mg/L amphotericin B (fungizone, Sigma). MG-63 cells were grown in Eagle’s Minimum Essential Medium (EMEM, Sigma) supplemented with 10% fetal bovine serum and 1% of antibiotics and 2.5 mg/L antimycotics solutions.
(§3) Extracts from each compound A, B or C were prepared by spreading 20 μL of a solution with 20 μM, 50 μM or 100 μM of each compound in a glass petri dish, allowed to dry, and incubated at 37 °C under humidified 5% CO2 for 24 h with 10 mL of the corresponding growth medium according to ISO 10993–12: 2012.
(§4) The cytotoxicity assay was performed as follows: 1 × 10^4 cells per well, from passages 8 to 12, were seeded in 96-well plates (eight replicates) and incubated at 37 °C under humidified 5% CO2 for 24 h. After proliferation, the cell medium was replaced by 200 μL of each extract and incubated under the same conditions for 24 h. As positive control cells were grown in their medium containing 7.5% DMSO (Sigma) and as negative control cells proliferated in medium without any toxic corresponding to 100% cell viability. MTT assays were performed as previously described. Briefly, extracts or medium were removed, an MTT solution (0.5 mg/mL prepared in serum-free medium, Sigma) was added to each well and cells were incubated for additional 3 h. After that, a solution containing 0.1% IGEPAL (Merck), 4 mM HCl (Sigma) in isopropanol (Sigma) was used to dissolve formazan. Plates were incubated with agitation for one hour and absorbance was read at 595 nm with a microplate reader (Bio-Rad®, Hercules, California, USA).

[2] = system: MMPs; test: Preliminary biochemical tests (not shown); conditions: data not shown, most MMPs
Text: However, there were additional interactions between the compounds and the enzyme depending on the enzyme class (collagenases and gelatinases) (See Appendix B, Appendix C, Appendix D and Appendix E).

[3] = system: NIH/3T3 fibroblast cells; test: Cytotoxicity study using MTT assay, NIH/3T3; format: cell-based, mouse; conditions: NIH/3T3 cells, 50 and 100 µM
Protocol: as §1, §2, §3, §4

[4] = Cytotoxicity study using MTT assay, NIH/3T3; format: cell-based, mouse; conditions: mouse, NIH/3T3 fibroblast cells, extract, 24 h, MTT, mean, read-out: Cell Viability (%) NIH/3T3 M; for viability at 24 h, 20 µM (stock): NIH/3T3, inhibitor concentration 20 μM; for viability at 24 h, 50 µM (stock): NIH/3T3, inhibitor concentration 50 µM; for viability at 24 h, 100 µM (stock): NIH/3T3, inhibitor concentration 100 µM
Protocol: as §1, §2, §3, §4

`C=C(C)C(=O)Oc1ccc(-c2ccc(C#N)cc2)cc1` [Compound A, 4′-cyano-[1,1′-bihenyl]-4-yl methacrylate] gave a viability at 24 h, 20 µM (stock) [1] of 82.6%, a viability at 24 h, 50 µM (stock) [1] of 73.6% and a viability at 24 h, 100 µM (stock) [1] of 73%. For the same compound, the MMP activity reduction [2] was “encouraging indications on activity reduction”, the “toxicity according to ISO 10993–5: 2009 (viable cells decreased more than 30%)” value [3] was “toxic” and the viability at 24 h, 20 µM (stock) [4] was 85.1%. It also gave a viability at 24 h, 50 µM (stock) [4] of 54.2% and a viability at 24 h, 100 µM (stock) [4] of 45.5%.
`C=C(C)C(=O)OCCCCCOc1ccc(-c2ccc(C#N)cc2)cc1` [Compound B, 5-((4′-cyano-[1,1′-biphenyl]-4-yl)oxy)pentyl methacrylate] showed a viability at 24 h, 20 µM (stock) [1] of 78.1%, a viability at 24 h, 50 µM (stock) [1] of 70.3% and a viability at 24 h, 100 µM (stock) [1] of 65.9%. The MMP activity reduction [2] was “encouraging indications on activity reduction”, the “toxicity according to ISO 10993–5: 2009 (viable cells decreased more than 30%)” value [3] was “toxic” and the viability at 24 h, 20 µM (stock) [4] was 78.6%. It also gave a viability at 24 h, 50 µM (stock) [4] of 50.5% and a viability at 24 h, 100 µM (stock) [4] of 40.5%.
Work on `C=C(C)C(=O)Nc1ccc(Oc2ccc(NC(=O)C(=C)C)cc2)cc1` [Compound C, N,N′-(oxybis(4,1-phenylene))bis(2-methylacrylamide)] yielded a viability at 24 h, 20 µM (stock) [1] of 85%, a viability at 24 h, 50 µM (stock) [1] of 65.8% and a viability at 24 h, 100 µM (stock) [1] of 69.2%. The MMP activity reduction [2] was “encouraging indications on activity reduction”, the “toxicity according to ISO 10993–5: 2009 (viable cells decreased more than 30%)” value [3] was “toxic” and the viability at 24 h, 20 µM (stock) [4] was 83.7%. For the same compound, the viability at 24 h, 50 µM (stock) [4] was 46.4% and the viability at 24 h, 100 µM (stock) [4] was 42.4%.

From PMC8065691, “Polymerizable Matrix Metalloproteinases’ Inhibitors with Potential Application for Dental Restorations” (Biomedicines, 2021)
